This is an account of results in patent publication US20170114029A1, “TREATMENT OF CHAGAS DISEASE” (UNIVERSITY OF DUNDEE, priority 2014, published 2017).

Converted amounts (≈) assume the structure as drawn.

The first test concerns T. cruzi Tulahuen strain C2C4. The test can be described thus: Activity against T. cruzi (beta-galactosidase expressing parasites in L-6 cells). The class given is cell-based, Trypanosoma cruzi. As to conditions: Trypanosoma cruzi, TULAHUEN, L6, Benznidazole used as control, same assay; read-out: IC50 of control. How it is done:
Activity against T. cruzi. Rat skeletal myoblasts (L-6 cells) were seeded in 96-well microtitre plates at 2000 cells/well in 100 μL RPMI 1640 medium with 10% FBS and 2 mM 1-glutamine. After 24 h the medium was removed and replaced by 100 μl per well containing 5000 trypomastigote forms of T. cruzi Tulahuen strain C2C4 containing the […] (Lac Z) gene (Buckner et al. 1996). After 48 h the medium was removed from the wells and replaced by 100 μl fresh medium with or without a serial drug dilution of eleven 3-fold dilution steps covering a range from 100 to 0.002 μg/ml. After 96 h of incubation the plates were inspected under an inverted microscope to assure growth of the controls and sterility. Then the substrate CPRG/Nonidet (50 μl) was added to all wells. A color reaction developed within 2-6 h and could be read photometrically at 540 nm. Data were analyzed with the graphic programme Softmax Pro (Molecular Devices), which calculated IC50 values by linear regression (Huber 1993) from the sigmoidal dose inhibition curves. Benznidazole is used as control (IC50 0.5±0.2 ug/ml). • Buckner, F. S., C. L. Verlinde, A. C. La Flamme, and W. C. Van Voorhis. 1996. Efficient technique for screening drugs for activity against Trypanosoma cruzi using parasites expressing beta-galactosidase, p. 2592-2597, vol. 40. • Huber, W. Koella, J. C. 1993. A comparison of the three methods of estimating EC50 in studies of drug resistance of malaria parasites. Acta Trop. 55, 257-261.
The term IC50 denotes the point on the concentration scale where inhibition reaches its midpoint. Consider `O=C(Cn1ccnc1[N+](=O)[O-])NCc1ccccc1` [Benznidazole, reference compound], for which the IC50 stood at 0.5 ± 0.2 µg/mL (≈ 1.92 µM).

The test is the same for the next values; noted with them: Trypanosoma cruzi, TULAHUEN, L6, in Rattus norvegicus, 96 h, trypomastigotes in rat skeletal myoblasts (L-6 cells), 96 h incubation, CPRG/Nonidet read at 540 nm; read-out: Activity (IC50).
Take `CC(C)(C)C1CCC(n2c(=O)[nH]c3ccc(N)cc3c2=O)CC1` (racemic) [23b (rac), 6-amino-3-(4-tert-butyl-cyclohexyl)-1H-quinazoline-2,4-dione]: the IC50 turned out to be 0.028 µg/mL (≈ 0.0888 µM).
Consider `CCC1CCC(n2c(=O)[nH]c3ccc(N)cc3c2=O)CC1` (racemic) [24 (rac), 6-Amino-3-(4-ethyl-cyclohexyl)-1H-quinazoline-2,4-dione], for which the 50% inhibitory concentration (IC50) was determined as 0.022 µg/mL (≈ 0.0766 µM).
In the case of `CC(C)C1CCC(n2c(=O)[nH]c3ccc(N)cc3c2=O)CC1` (racemic) [25 (rac), 6-Amino-3-(4-isopropylcyclohexyl)-1H-quinazoline-2,4-dione], the IC50 was 0.028 µg/mL (≈ 0.0929 µM).
On the same count and under the same terms, as for `CC(C)(C)[C@H]1CC[C@@H](n2c(=O)[nH]c3ccc(N)cc3c2=O)CC1` [23b (cis), 6-amino-3-(cis-4-tert-butyl-cyclohexyl)-1H-quinazoline-2,4-dione], the figure is 0.007 µg/mL (≈ 0.0222 µM).
Consider `CC(C)(C)[C@H]1CC[C@H](n2c(=O)[nH]c3ccc(N)cc3c2=O)CC1` [23b (trans), 6-amino-3-(trans-4-tert-butyl-cyclohexyl)-1H-quinazoline-2,4-dione], for which the 50% inhibitory concentration (IC50) was 0.03 µg/mL (≈ 0.0951 µM).
Still for that read-out and setting: the value for `CC[C@H]1CC[C@@H](n2c(=O)[nH]c3ccc(N)cc3c2=O)CC1` [24 (cis), 6-Amino-3-(cis-4-ethyl-cyclohexyl)-1H-quinazoline-2,4-dione] was 0.096 µg/mL (≈ 0.334 µM).
Regarding `CC[C@H]1CC[C@H](n2c(=O)[nH]c3ccc(N)cc3c2=O)CC1` [24 (trans), 6-Amino-3-(trans-4-ethyl-cyclohexyl)-1H-quinazoline-2,4-dione], the IC50 came to 0.035 µg/mL (≈ 0.122 µM).
`CC(=O)Nc1ccc2[nH]c(=O)n(CCC3=CCCCC3)c(=O)c2c1` [Example 1c, N-[3-(2-Cyclohex-1-enyl-ethyl)-2,4-dioxo-1,2,3,4-tetrahydro-quinazolin-6-yl]-acetamide]: the 50% inhibitory concentration (IC50) amounted to 0.692 µg/mL (≈ 2.11 µM).
Turning to `CC(=O)Nc1ccc2[nH]c(=O)n([C@H](C)C3CCCCC3)c(=O)c2c1` [Example 2, (R)—N-(3-(1-cyclohexylethyl)-2,4-dioxo-1,2,3,4-tetrahydroquinazolin-6-yl)acetamide], the IC50 was determined as 0.724 µg/mL (≈ 2.2 µM).
Same read-out and setting: as for `CC(=O)Nc1ccc2[nH]c(=O)n(CCC3CCCCC3)c(=O)c2c1` [Example 3, N-[3-(2-Cyclohexylethyl)-2,4-dioxo-1,2,3,4-tetrahydroquinazolin-6-yl]acetamide], the figure is 0.162 µg/mL (≈ 0.492 µM); as for `CC(=O)Nc1ccc2[nH]c(=O)n(CCC(C)C)c(=O)c2c1` [Example 4, N-(3-Isopentyl-2,4-dioxo-1,2,3,4-tetrahydroquinazolin-6-yl)acetamide], 2.81 µg/mL (≈ 9.71 µM); as for `CC(=O)Nc1ccc2[nH]c(=O)n(CCCC3CCCCC3)c(=O)c2c1` [Example 5, N-[3-(3-Cyclohexyl-propyl)-2,4-dioxo-1,2,3,4-tetrahydro-quinazolin-6-yl]-acetamide], 0.163 µg/mL (≈ 0.475 µM).
Same read-out and setting: as for `COCCn1c(=O)[nH]c2ccc(NC(C)=O)cc2c1=O` [Example 6, N-(3-(2-methoxyethyl)-2,4-dioxo-1,2,3,4-tetrahydroquinazolin-6-yl)acetamide], the figure is 9.62 µg/mL (≈ 34.7 µM); as for `CC(=O)Nc1ccc2[nH]c(=O)n(C(CC3CCCCC3)C(N)=O)c(=O)c2c1` (stereo not drawn) [Example 7, 2-(6-Acetamido-2,4-dioxo-1,4-dihydroquinazolin-3(2H)-yl)-3-cyclohexylpropanamide], 63.6 µg/mL (≈ 171 µM).
In the case of `Nc1ccc2[nH]c(=O)n(CCC3CCCCC3)c(=O)c2c1` [Example 9, 6-Amino-3-(2-cyclohexylethyl)quinazoline-2,4(1H,3H)-dione], the IC50 stood at 0.339 µg/mL (≈ 1.18 µM).
Consider `CC(=O)N(C)c1ccc2c(c1)c(=O)n(CCC1CCCCC1)c(=O)n2C` [Example 11, N-(3-(2-cyclohexylethyl)-1-methyl-2,4-dioxo-1,2,3,4-tetrahydroquinazolin-6-yl)-N-methylacetamide], for which the concentration for half-maximal inhibition (IC50) came to 6.44 µg/mL (≈ 18 µM).
On to `CCNc1ccc2c(c1)c(=O)n(CCC1CCCCC1)c(=O)n2CC` [Example 12b, 3-(2-cyclohexylethyl)-1-ethyl-6-(ethylamino)quinazoline-2,4(1H,3H)-dione], for which the IC50 came out at 7.7 µg/mL (≈ 22.4 µM).
Same read-out and setting: the value for `CCOC(=O)Nc1ccc2c(c1)c(=O)n(CCC1CCCCC1)c(=O)n2CC` [Example 13c, Ethyl (3-(2-cyclohexylethyl)-1-ethyl-2,4-dioxo-1,2,3,4-tetrahydroquinazolin-6-yl)carbamate] was 5.23 µg/mL (≈ 13.5 µM).
`O=C(Nc1ccc2[nH]c(=O)n(CCC3CCCCC3)c(=O)c2c1)c1ccccc1` [Example 14c, N-(3-(2-Cyclohexylethyl)-2,4-dioxo-1,2,3,4-tetrahydroquinazolin-6-yl)benzamide]: the IC50 came out at 5.88 µg/mL (≈ 15 µM).
Take `CC(C)(C)C(=O)Nc1ccc2[nH]c(=O)n(CCC3CCCCC3)c(=O)c2c1` [Example 15b, N-(3-(2-cyclohexylethyl)-2,4-dioxo-1,2,3,4-tetrahydroquinazolin-6-yl)pivalamide]: the half-inhibitory concentration (IC50) came to 2.64 µg/mL (≈ 7.11 µM).
Turning to `Cc1noc(C)c1-c1ccc2[nH]c(=O)n(CCC3CCCCC3)c(=O)c2c1` [Example 16c, 3-(2-Cyclohexylethyl)-6-(3,5-dimethylisoxazol-4-yl)quinazoline-2,4(1H,3H)-dione], the 50% inhibitory concentration (IC50) stood at 11.5 µg/mL (≈ 31.3 µM).
As to `O=c1[nH]c2ccc(-c3cccnc3)cc2c(=O)n1CCC1CCCCC1` [Example 17, 3-(2-Cyclohexylethyl)-6-(pyridin-3-yl)quinazoline-2,4(1H,3H)-dione], the concentration for half-maximal inhibition (IC50) was found to be 0.655 µg/mL (≈ 1.87 µM).
The same measure, in the same setting: the value for `O=c1[nH]c2ccc(-c3cncnc3)cc2c(=O)n1CCC1CCCCC1` [Example 18, 3-(2-Cyclohexylethyl)-6-(pyrimidin-5-yl)quinazoline-2,4(1H,3H)-dione] was 4.93 µg/mL (≈ 14.1 µM); that for `O=c1[nH]c2ccc(-c3ccncc3)cc2c(=O)n1CCC1CCCCC1` [Example 19, 3-(2-Cyclohexylethyl)-6-(pyridin-4-yl)quinazoline-2,4(1H,3H)-dione] was 0.605 µg/mL (≈ 1.73 µM); that for `CC(C)(C)C1CCC(n2c(=O)[nH]c3ccc(-c4ccncc4)cc3c2=O)CC1` (stereo not drawn) [Example 21c, 3-(4-(tert-butyl)cyclohexyl)-6-(pyridin-4-yl)quinazoline-2,4(1H,3H)-dione] was 0.892 µg/mL (≈ 2.36 µM).
The same measure, in the same setting: as for `CC(C)(C)C1CCC(n2c(=O)[nH]c3ccc(-c4cccnc4)cc3c2=O)CC1` (stereo not drawn) [Example 22, 3-(4-(tert-butyl)cyclohexyl)-6-(pyridin-3-yl)quinazoline-2,4(1H,3H)-dione], the figure is 2.63 µg/mL (≈ 6.97 µM).
On the same count and under the same terms, the value for `CC(C)(C)[C@H]1CC[C@H](n2c(=O)[nH]c3ncc(N)cc3c2=O)CC1` [Example 26e, 6-Amino-3-(trans-4-tert-butyl-cyclohexyl)-1H-pyrido[2,3-d]pyrimidine-2,4-dione] was 0.209 µg/mL (≈ 0.661 µM); that for `CC(C)(C)[C@H]1CC[C@@H](n2c(=O)[nH]c3ncc(N)cc3c2=O)CC1` [Example 27, 6-Amino-3-((1 S,4S)-4-(tert-butyl)-cyclohexyl)pyrido[2,3-d]pyrimidine-2,4(1H.3H)-dione] was 0.289 µg/mL (≈ 0.913 µM); that for `CC(=O)Nc1cnc2[nH]c(=O)n([C@H]3CC[C@H](C(C)(C)C)CC3)c(=O)c2c1` [Example 33, N-[3-(trans-4-tert-Butyl-cyclohexyl)-2,4-dioxo-1,2,3,4-tetrahydro-pyrido[2,3-d]pyrimidin-6-yl]-acetamide] was 0.196 µg/mL (≈ 0.547 µM).
With `CC(=O)Nc1cnc2[nH]c(=O)n([C@H]3CC[C@@H](C(C)(C)C)CC3)c(=O)c2c1` [Example 34, N-[3-(cis-4-tert-Butyl-cyclohexyl)-2,4-dioxo-1,2,3,4-tetrahydro-pyrido[2,3-d]pyrimidin-6-yl)-acetamide], the IC50 worked out at 0.36 µg/mL (≈ 1 µM).
In the case of `CCC1CCC(n2c(=O)[nH]c3ncc(NC(C)=O)cc3c2=O)CC1` (stereo not drawn) [Example 35, N-[3-(trans-4-ethyl-cyclohexyl)-2,4-dioxo-1,2,3,4-tetrahydro-pyrido[2,3-d]pyhmidin-6-yl]-acetamide], the half-maximal inhibitory concentration (IC50) was found to be 0.1 µg/mL (≈ 0.303 µM).
The same measure, in the same setting: the value for `CC(=O)Nc1cnc2[nH]c(=O)n(CCC3CCCCC3)c(=O)c2c1` [Example 39, N-(3-(2-cyclohexylethyl)-2,4-dioxo-1,2,3,4-tetrahydropyrido[2,3-d]pyrimidin-6-yl)acetamide] was 0.755 µg/mL (≈ 2.29 µM); that for `CC(=O)Nc1ccc2[nH]c(=O)n(CCCN3CCOCC3)c(=O)c2c1` [Example 40, N-(3-(3-Morpholinopropyl)-2,4-dioxo-1,2,3,4-tetrahydroquinazolin-6-yl)acetamide] was 55.3 µg/mL (≈ 160 µM).

Staying with this test, now noted: trypomastigotes in rat skeletal myoblasts (L-6 cells), 96 h incubation, CPRG/Nonidet read at 540 nm.
As to `CC(C)[C@H]1CC[C@H](n2c(=O)[nH]c3ccc(N)cc3c2=O)CC1` [25 (trans), 6-Amino-3-((1 r,4r)-4-isopropylcyclohexyl)quinazoline-2,4(1H,3H)-dione], the “Activity (IC50)” value stood at 0.008 µg/mL.
Turning to `CCC1CCC(n2c(=O)[nH]c3ncc(NC(C)=O)cc3c2=O)CC1` (stereo not drawn) [Example 36, N-(3-((1s,4s)-4-ethylcyclohexyl)-2,4-dioxo-1,2,3,4-tetrahydropyrido[2,3-d]pyrimidin-6-yl)acetamide], the “Activity (IC50)” value came out at 0.110 µg/mL.
